Experimental findings from patent US20240174727A1, “LONG-ACTING NATRIURETIC PEPTIDES AND USES THEREOF” (Eli Lilly and Company, priority 2022, published 2024) are described below.

The target in the assay is T1, human NPRA (Homo sapiens, UniProt P16066).
T1 construct: Full-Length cDNA Cloning and Generation of Cell Lines Overexpressing Natriuretic Peptide Receptors (NPRs); expressed in transfected cells; host or cells: Jump-in T-Rex HEK293 cells, pJTI R4 CMV-TO MCS pA vector, tetracycline induction
T1 sequence (P16066 33-1061): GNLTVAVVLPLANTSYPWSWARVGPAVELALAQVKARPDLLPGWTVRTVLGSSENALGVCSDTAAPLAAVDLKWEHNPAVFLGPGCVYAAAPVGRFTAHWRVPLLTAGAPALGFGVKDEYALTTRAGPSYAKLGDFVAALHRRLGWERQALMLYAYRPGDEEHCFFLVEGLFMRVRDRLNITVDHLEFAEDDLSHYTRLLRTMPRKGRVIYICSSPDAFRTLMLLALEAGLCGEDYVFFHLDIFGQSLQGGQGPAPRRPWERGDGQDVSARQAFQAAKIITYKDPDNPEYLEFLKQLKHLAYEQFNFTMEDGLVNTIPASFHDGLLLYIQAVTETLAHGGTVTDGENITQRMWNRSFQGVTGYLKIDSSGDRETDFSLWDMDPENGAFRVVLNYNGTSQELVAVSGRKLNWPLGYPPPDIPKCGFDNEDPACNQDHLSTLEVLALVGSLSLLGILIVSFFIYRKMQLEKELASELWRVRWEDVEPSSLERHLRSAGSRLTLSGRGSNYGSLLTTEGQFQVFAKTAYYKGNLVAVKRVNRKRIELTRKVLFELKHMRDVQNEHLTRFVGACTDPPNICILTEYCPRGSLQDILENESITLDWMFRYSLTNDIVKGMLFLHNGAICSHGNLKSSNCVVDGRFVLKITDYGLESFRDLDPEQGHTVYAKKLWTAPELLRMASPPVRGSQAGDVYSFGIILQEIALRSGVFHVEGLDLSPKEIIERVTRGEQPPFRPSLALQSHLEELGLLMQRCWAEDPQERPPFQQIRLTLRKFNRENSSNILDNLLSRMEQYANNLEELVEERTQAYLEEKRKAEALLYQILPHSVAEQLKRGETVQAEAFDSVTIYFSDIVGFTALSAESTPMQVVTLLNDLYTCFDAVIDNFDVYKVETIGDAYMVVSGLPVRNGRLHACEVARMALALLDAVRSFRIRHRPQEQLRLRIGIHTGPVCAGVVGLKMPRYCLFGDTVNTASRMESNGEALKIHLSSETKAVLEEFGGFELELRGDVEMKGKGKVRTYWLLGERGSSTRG
Kind of assay: Human NPRA cGMP activity assay (HTRF) in HEK293 cells overexpressing NPRA. In kind it is cell-based. Summed up: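 Tetracycline-induced (300 ng/mL, 48 h) T-Rex HEK293 cells expressing NPRA, 4000 cells/well, treated 40 min at room temperature with polypeptide (8 points, 10 μM to 1 pM) in HBSS/HEPES buffer with 0.5 mM IBMX, pH 7.4. cGMP by HTRF, normalised to 100 nM amidated rat ANP and buffer.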
Background: Time-resolved FRET reads energy transfer from a long-lived donor to a nearby acceptor.

[1] abbreviates: cGMP Assay (EC50, pM) w/Casein hNPRA, assay buffer with 0.1% casein.
Setting [2] is: assay buffer with 0.1% BSA, read-out: cGMP Assay (EC50, pM) w/BSA hNPRA.
The mark [3] stands for this setting: assay buffer with 0.1% casein, read-out: cGMP Assay (EC50, pM) w/Casein hNPRA.
The mark [4] stands for this setting: cGMP Assay (EC50, pM) w/BSA hNPRA, assay buffer with 0.1% BSA.

Read-outs that look alike come from different tables or passages of the source. Numbered stars: 1 amine (or outer) side, 2 acyl side, 3 side chain; on linkers, the order of the positions; unused ones are H or OH. Bridge positions count the residues as written; N and C are the ends. Square brackets hold non-standard residues; d marks the D form. Peptide text beside a SMILES is read from it. * marks the point of attachment. PEG24 = NCCOCCOCCOCCOCCOCCOCCOCCOCCOCCOCCOCCOCCOCCOCCOCCOCCOCCOCCOCCOCCOCCOCCOCCOCCC(=O)O; C20 diacid = O=C(O)CCCCCCCCCCCCCCCCCCC(=O)*; γGlu = O=C(O)[C@H](CCC(=O)[*:2])N[*:1]; 4Pal = N[C@@H](Cc1ccncc1)C(=O)O; Dap = NC[C@H](N)C(=O)O; CH2 = C([*:1])[*:2]; βAla = NCCC(=O)O

Under setting [1], “{C20 diacid-γGlu}-EKEKEKG[PEG24]S[4Pal]RRSSCFGGRIDRIGHQSGLGCPSFRHGGPSSGAPPPS-NH2 (linker 15-31 via CH2) [Example 61]” registered an EC50 of 912 pM.

As to `CC[C@H](C)[C@@H]1NC(=O)[C@H](CCCNC(=N)N)NC(=O)[C@H](CC(=O)O)NC(=O)[C@H]([C@@H](C)CC)NC(=O)[C@H](CCCNC(=N)N)NC(=O)[C@H](CCCCN)NC(=O)CNC(=O)[C@H](Cc2ccccc2)NC(=O)[C@@H](NC(=O)[C@H](CO)NC(=O)[C@H](CO)NC(=O)[C@H](CCCNC(=N)N)NC(=O)CCNC(=O)[C@H](CCCCN)NC(=O)[C@H](CCC(=O)O)NC(=O)CCOCCOCCOCCOCCOCCOCCOCCOCCOCCOCCOCCOCCOCCOCCOCCOCCOCCOCCOCCOCCOCCOCCOCCOCCNC(=O)CNC(=O)[C@H](CCCCN)NC(=O)[C@H](CCC(=O)O)NC(=O)[C@H](CCCCN)NC(=O)[C@H](CCC(=O)O)NC(=O)[C@H](CCCCN)NC(=O)[C@H](CCC(=O)O)NC(=O)CC[C@H](NC(=O)CCCCCCCCCCCCCCCCCCC(=O)O)C(=O)O)CSCSC[C@@H](C(=O)N2CCC[C@H]2C(=O)N[C@@H](CO)C(=O)N[C@@H](Cc2ccccc2)C(=O)N[C@@H](CCCNC(=N)N)C(=O)N[C@@H](Cc2c[nH]cn2)C(=O)NCC(=O)NCC(=O)N2CCC[C@H]2C(N)=O)NC(=O)CNC(=O)[C@H](CC(C)C)NC(=O)CNC(=O)[C@H](CO)NC(=O)[C@H](CCC(N)=O)NC(=O)[C@H](Cc2c[nH]cn2)NC(=O)CNC1=O` [Example 130] ({C20 diacid-γGlu}-EKEKEKG[PEG24]EK[βAla]RSSCFGKRIDRIGHQSGLGCPSFRHGGP-NH2; linker 15-31 via CH2), the EC50 amounted to 1270 pM under setting [2] and 669 pM under setting [3].

Regarding `CC[C@H](C)[C@@H]1NC(=O)[C@H](CCCNC(=N)N)NC(=O)[C@H](CC(=O)O)NC(=O)[C@H]([C@@H](C)CC)NC(=O)[C@H](CCCNC(=N)N)NC(=O)CNC(=O)CNC(=O)[C@H](Cc2ccccc2)NC(=O)[C@@H](NC(=O)[C@H](CO)NC(=O)[C@H](CO)NC(=O)[C@H](CCCNC(=N)N)NC(=O)CCNC(=O)[C@H](CCC(=O)O)NC(=O)[C@H](CCCCN)NC(=O)CNC(=O)[C@H](CCCCN)NC(=O)[C@H](CCC(=O)O)NC(=O)[C@H](CCCCN)NC(=O)[C@H](CCC(=O)O)NC(=O)[C@H](CCCCN)NC(=O)[C@H](CCC(=O)O)NC(=O)CC[C@H](NC(=O)CCCCCCCCCCCCCCCCCCC(=O)O)C(=O)O)CSCSC[C@@H](C(=O)N2CCC[C@H]2C(=O)N[C@@H](CO)C(=O)N[C@@H](Cc2ccccc2)C(=O)N[C@@H](CCCNC(=N)N)C(=O)N[C@@H](Cc2c[nH]cn2)C(=O)NCC(=O)NCC(=O)N2CCC[C@H]2C(=O)N[C@@H](CO)C(=O)N[C@@H](CO)C(=O)NCC(=O)N[C@@H](C)C(=O)N2CCC[C@H]2C(=O)N2CCC[C@H]2C(=O)N2CCC[C@H]2C(=O)N[C@@H](CO)C(N)=O)NC(=O)CNC(=O)[C@H](CC(C)C)NC(=O)CNC(=O)[C@H](CO)NC(=O)[C@H](Cc2ccc(O)cc2)NC(=O)[C@H](Cc2c[nH]cn2)NC(=O)CNC1=O` [Example 58], the EC50 runs as follows: under setting [4], 104000 pM; under setting [1], 1220 pM.

Turning to “{C20 diacid-γGlu}-EKEKEKGEKPRSSCFG[Dap]RIDRIGHYSGLGCPSFRHGSPSSGAPPPS-NH2 (linker 14-30 via CH2) [Example 136]”, the EC50 under setting [2] was determined as 100000 pM and the EC50 under setting [3] turned out to be 1380 pM.

Turning to `CC[C@H](C)[C@@H]1NC(=O)[C@H](CCCNC(=N)N)NC(=O)[C@H](CC(=O)O)NC(=O)[C@H]([C@@H](C)CC)NC(=O)[C@H](CCCNC(=N)N)NC(=O)CNC(=O)CNC(=O)[C@H](Cc2ccccc2)NC(=O)[C@@H](NC(=O)[C@H](CO)NC(=O)[C@H](CO)NC(=O)[C@H](CCCNC(=N)N)NC(=O)[C@H](CCCNC(=N)N)NC(=O)[C@H](Cc2ccncc2)NC(=O)[C@H](CO)NC(=O)COCCOCCNC(=O)COCCOCCNC(=O)COCCOCCNC(=O)COCCOCCNC(=O)COCCOCCNC(=O)COCCOCCNC(=O)CNC(=O)[C@H](CCCCN)NC(=O)[C@H](CCC(=O)O)NC(=O)[C@H](CCCCN)NC(=O)[C@H](CCC(=O)O)NC(=O)[C@H](CCCCN)NC(=O)[C@H](CCC(=O)O)NC(=O)CC[C@H](NC(=O)CCCCCCCCCCCCCCCCCCC(=O)O)C(=O)O)CSCSC[C@@H](C(=O)N2CCC[C@H]2C(=O)N[C@@H](CO)C(=O)N[C@@H](Cc2ccccc2)C(=O)N[C@@H](CCCNC(=N)N)C(=O)N[C@@H](Cc2c[nH]cn2)C(=O)NCC(=O)NCC(=O)N[C@@H](CCCCN)C(=O)N[C@@H](CO)C(=O)N[C@@H](CO)C(=O)NCC(=O)N[C@@H](C)C(=O)N2CCC[C@H]2C(=O)N2CCC[C@H]2C(=O)N2CCC[C@H]2C(=O)N[C@@H](CO)C(N)=O)NC(=O)CNC(=O)[C@H](CC(C)C)NC(=O)CNC(=O)[C@H](CO)NC(=O)[C@H](CCC(N)=O)NC(=O)[C@H](Cc2c[nH]cn2)NC(=O)CNC1=O` [Example 86], the EC50 by setting is: under setting [2], 25200 pM; under setting [3], 1020 pM.

In the case of `CC[C@H](C)[C@@H]1NC(=O)[C@H](CCCNC(=N)N)NC(=O)[C@H](CC(=O)O)NC(=O)[C@H]([C@@H](C)CC)NC(=O)[C@H](CCCNC(=N)N)NC(=O)CNC(=O)CNC(=O)[C@H](Cc2ccccc2)NC(=O)[C@@H](NC(=O)[C@H](CO)NC(=O)[C@H](CO)NC(=O)[C@H](CCCNC(=N)N)NC(=O)CCNC(=O)[C@H](CCCCN)NC(=O)[C@H](CCC(=O)O)NC(=O)CNC(=O)[C@H](CCCCN)NC(=O)[C@H](CCC(=O)O)NC(=O)[C@H](CCCCN)NC(=O)[C@H](CCC(=O)O)NC(=O)[C@H](CCCCN)NC(=O)[C@H](CCC(=O)O)NC(=O)CC[C@H](NC(=O)CCCCCCCCCCCCCCCCCCC(=O)O)C(=O)O)CSCSC[C@@H](C(=O)N2CCC[C@H]2C(=O)N[C@@H](CO)C(=O)N[C@@H](Cc2ccccc2)C(=O)N[C@@H](CCCNC(=N)N)C(=O)N[C@@H](Cc2c[nH]cn2)C(=O)NCC(=O)NCC(=O)N2CCC[C@H]2C(=O)N[C@@H](CO)C(=O)N[C@@H](CO)C(=O)NCC(=O)N[C@@H](C)C(=O)N2CCC[C@H]2C(=O)N2CCC[C@H]2C(=O)N2CCC[C@H]2C(=O)N[C@@H](CO)C(N)=O)NC(=O)CNC(=O)[C@H](CC(C)C)NC(=O)CNC(=O)[C@H](CO)NC(=O)[C@H](Cc2ccc(O)cc2)NC(=O)[C@H](Cc2c[nH]cn2)NC(=O)CNC1=O` [Example 56], the EC50 under setting [4] was determined as 145000 pM.

With “{C20 diacid-γGlu}-EKEKEKGEKPRSSCFG[Dap]RIDRIGHQSGLGCPSFRHGSPSSGAPPPS-NH2 (linker 14-30 via CH2) [Example 137]”, the EC50 is, setting by setting: under setting [2], 155000 pM; under setting [3], 769 pM.
